This experiment has as its target Kappa-type opioid receptor (Homo sapiens, UniProt P41145). Put plainly: Inhibition of human kappa opioid receptor assessed as inhibition constant.

Kappa-type opioid receptor, sequence (P41145 whole entry): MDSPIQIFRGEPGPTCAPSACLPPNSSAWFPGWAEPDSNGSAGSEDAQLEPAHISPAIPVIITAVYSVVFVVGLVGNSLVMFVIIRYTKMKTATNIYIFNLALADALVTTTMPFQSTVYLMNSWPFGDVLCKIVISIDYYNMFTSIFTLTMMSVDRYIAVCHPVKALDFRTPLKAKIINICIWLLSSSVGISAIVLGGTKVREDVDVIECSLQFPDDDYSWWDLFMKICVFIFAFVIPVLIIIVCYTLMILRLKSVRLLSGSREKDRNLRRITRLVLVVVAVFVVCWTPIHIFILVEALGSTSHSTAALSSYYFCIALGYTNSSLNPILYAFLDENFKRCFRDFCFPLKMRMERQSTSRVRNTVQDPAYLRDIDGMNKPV

With `COC(=O)[C@@H]1C[C@H](OC(C)=O)C(=O)[C@H]2[C@@]1(C)CC[C@H]1C(=O)O[C@H](C(=O)Nc3ccccc3)C[C@]21C`, the inhibitory constant (Ki) was found to be 1000 nM.

Values taken from ChEMBL document CHEMBL5252547, “A review of salvinorin analogs and their kappa-opioid receptor activity” (Bioorg Med Chem Lett, 2018).
